# Measurements taken from publication PMC4667898, “Antibody Binding Selectivity: Alternative Sets of Antigen Residues Entail High-Affinity Recognition” (PLoS ONE, 2015).
# Tested on: scFv1F4-QL34S
# Assay: PEPperCHIP peptide array, spot fluorescence after staining with DyLight680-labeled scFv
# Assay type: binding
# Procedure: ScFv1F4-QL34S labeling with DyLight680, peptide array synthesis and binding detection were performed by PEPperPRINT GmbH (PEPperCHIP® Platform Technology, Heidelberg, Germany). The permutation scans were carried out on the WT decapeptide ^6TAMFQDPQER^15 and on its variants. In a permutation scan, the effect on binding of replacing each of the ten peptide positions by all amino-acids except cysteine is analyzed, which requires the synthesis of 190 spot peptides per starting peptide (19 amino-acids at 10 positions). Two arrays were prepared, each containing the permutation analysis of the WT peptide and of 19 variants. All peptides were synthesized in duplicate (7,600 peptide spots per array). The peptide arrays were stained with the DyLight680-labeled scFv1F4-QL34S. The permutation scans of the WT peptide and of variant ^6TAMFQDPFER^15 are highlighted by white frames. The staining pattern of array A (S1 Fig) was published previously.
# The objective was to investigate whether a starting amino-acid replacement modifies the effect on binding of amino-acid changes at neighboring positions. For example the effect of a deleterious starting change could be compensated by a replacement elsewhere. Residue interdependences may also be found in the case of non-deleterious starting replacements. They can be identified by comparing the permutation patterns of the WT and variant peptides. Arrays A [28] (S1 Fig) and B (Fig 1) each contained the permutation scans of the WT decapeptide ^6TAMFQDPQER^15 and of nineteen variants. Data recorded for the WT and 14 variant peptides of array A were described previously. The data presented here include all permutation scans in array B (WT and 19 variants), together with those of 5 variants in array A. One of these was performed twice in array A (peptide ^6TRMFQDVQER^15). Therefore the data include the permutations scans of the WT and of 23 variant decapeptides (Table 1), each of them being recorded at least in duplicate.
# The repeatability of fluorescence measurements can be assessed because: i/ all peptides were synthesized in duplicate (Fig 1), ii/ the duplicated scan of peptide ^6TRMFQDVQER^15 was repeated in array A and iii/ several peptides occur repeatedly within a same or in different families. Array B contained 3,222 different peptides, with 105 peptides repeated between 6 and 46 times.
# The signal intensity ranges differed in the two arrays: 6,800 and 18,100 for the scFv—WT decapeptide interaction in arrays A and B, respectively (Table 1). However normalization of the intensity values with respect to the mean value of the scFv1F4-WT peptide intensity in each panel, produced well-superimposed patterns (Fig 2). […] In addition, assuming that T6 is not part of the epitope, the variability observed for this position (standard deviation = 0.12) provides insight into the statistical significance of the normalized intensities.
# [1] = array B, mean intensity relative to WT decapeptide of array B
# [2] = array A, mean intensity relative to WT decapeptide of array A
Sequence,% of WT signal [1],further results
TAMDQDPQER [starting variant of the WT decapeptide on array B],3%,–
TAMFADPQER [starting variant of the WT decapeptide on array B],2%,–
TAMFKDPQER [starting variant of the WT decapeptide on array B],2%,–
TAMFQDHQER [starting variant of the WT decapeptide on array B],4%,–
TAMFQDPFER [starting variant of the WT decapeptide on array B],68%,–
TAMFQDPQEA [starting variant of the WT decapeptide on array B],6%,–
TAMFQDPQEQ [starting variant of the WT decapeptide on array B],24%,–
"TAMFQDPQER [WT decapeptide, residues 6-15 of HPV16-E6 oncoprotein, array-synthesized]",100%,–
TAMFQDPSFM [starting variant of the WT decapeptide on array B],2%,–
TAMFQDPYER [starting variant of the WT decapeptide on array B],37%,–
TAMFQDQQER [starting variant of the WT decapeptide on array B],5%,–
TAMFQDVFER [starting variant of the WT decapeptide on array A],–,"% of WT signal [2]: 14%; % of WT signal (array A, mean intensity relative to WT decapeptide of array A, listed as P12V-Q13F): exceeded 10%"
TAMFQDVQER [starting variant of the WT decapeptide on array B],16%,–
TAMFQDVYER [starting variant of the WT decapeptide on array B],16%,"% of WT signal (array B, mean intensity relative to WT decapeptide of array B, listed as P12V-Q13Y): exceeded 10%"
TAMFQDYQER [starting variant of the WT decapeptide on array B],7%,averaged fluorescence signal as % of that recorded with the WT peptide (array not stated at the place (arrays A and B)): < 10%
TAMFQRAQER [starting variant of the WT decapeptide on array B],3%,–
TAMFQSPYER [starting variant of the WT decapeptide on array A],–,"% of WT signal [2]: 21%; % of WT signal (array A, mean intensity relative to WT decapeptide of array A, listed as D11S-Q13Y): exceeded 10%"
TAMFQTPQER [starting variant of the WT decapeptide on array B],3%,–
TAMLADPQER [starting variant of the WT decapeptide on array B],3%,–
TAMLQDPQER [starting variant of the WT decapeptide on array B],3%,–
TGSFQDPQER [starting variant of the WT decapeptide on array B],66%,"% of WT signal (array B, mean intensity relative to WT decapeptide of array B, listed as A7G-M8S): exceeded 10%"
TGSFQRASFM [starting variant of the WT decapeptide on array B],2%,–
TQMFQDPYER [starting variant of the WT decapeptide on array A],–,"% of WT signal [2]: 23%; % of WT signal (array A, mean intensity relative to WT decapeptide of array A, listed as A8Q-Q13Y): exceeded 10%"
TRMFQDVQER [starting variant of the WT decapeptide on array A],–,% of WT signal [2]: 5%
